Data taken from ChEMBL document CHEMBL1130900, “Synthesis and structure-activity relationships of 2-pyridones: II. 8-(Fluoro-substituted pyrrolidinyl)-2-pyridones as antibacterial agents” (Bioorg Med Chem Lett, 1998).
Values after ≈ are worked out from the molar mass of the structure shown.

Key:
Streptococcus equinus = assay: Antibacterial activity against Gram-positive Streptococcus bovis A5169 was determined; format: functional; conditions: Streptococcus equinus; read-out: MIC
Staphylococcus aureus [1] = assay: Antibacterial activity against Staphylococcus aureus NCTC-10649M was determined; format: functional
Providencia stuartii = assay: Antibacterial activity against Gram-negative Providencia Stuartii CMX640 was determined; format: functional; conditions: Providencia stuartii; read-out: MIC
Klebsiella aerogenes = assay: Antibacterial activity against Enterobacter aerogenes ATCC 13048 was determined; format: functional
Klebsiella pneumoniae = assay: Antibacterial activity against Klebsiella pneumoniae ATCC 8045 was determined; format: functional; conditions: Klebsiella pneumoniae, ATCC 8045; read-out: MIC
Escherichia coli [2] = assay: Antibacterial activity against Escherichia coli JUHL was determined; format: functional; conditions: Escherichia coli; read-out: MIC
Enterococcus faecium = assay: Antibacterial activity against Enterococcus faecium ATCC 8043 was determined; format: functional; conditions: Enterococcus faecium, ATCC 8043; read-out: MIC
Pseudomonas aeruginosa = assay: Antibacterial activity against Pseudomonas aeruginosa A-5007 was determined; format: functional; conditions: Pseudomonas aeruginosa; read-out: MIC
Streptococcus pyogenes = assay: Antibacterial activity against Streptococcus pyogenes EES61 was determined; format: functional; conditions: Streptococcus pyogenes; read-out: MIC
Staphylococcus aureus [3] = assay: Antibacterial activity against Staphylococcus aureus A1775 was determined; format: functional; conditions: Staphylococcus aureus; read-out: MIC
Escherichia coli [4] = assay: Effective dose against Escherichia coli JUHL in mice upon subcutaneous administration; format: functional; conditions: sc
Staphylococcus aureus [5] = assay: Effective dose against Staphylococcus aureus NCTC-10649M in mice upon peroral administration; format: functional; conditions: po
[6] = Compound was tested for its effective dose against Escherichia coli JUHL in mice upon peroral administration; format: functional; conditions: Mus musculus, po
Staphylococcus aureus [7] = assay: Effective dose against Staphylococcus aureus NCTC-10649M in mice upon subcutaneous administration; format: functional; conditions: sc
DNA gyrase (bacterial) = assay: Compound was tested for bacterial DNA gyrase activity; conditions: Bacteria
Mus musculus [8] = assay: Compound was tested for its effective dose against Staphylococcus aureus NCTC-10649M in mice upon subcutaneous administration; format: functional; conditions: sc
Mus musculus [9] = assay: Compound was tested for its effective dose against Staphylococcus aureus NCTC-10649M in mice upon peroral administration; format: functional; conditions: po
[10] = Compound was evaluated for maximal plasma concentration in rat upon 5 mg/kg upon oral administration; format: ADME, organism-based; parameters: dose 5 mg/kg, route oral
Mus musculus [11] = assay: Compound was tested for its effective dose against Staphylococcus aureus NCTC-10649M in mice upon peroral administration; Mice were infected with 1000xLD50; format: functional; conditions: po
[12] = Oral bioavailability in rat (dose 5 mg/kg); format: ADME, organism-based; conditions: in vivo
[13] = Staphylococcus aureus, read-out: MIC
[14] = Klebsiella aerogenes, ATCC 13048, read-out: MIC

SMILES | MIC (Streptococcus equinus) [µg/mL] | MIC (Staphylococcus aureus [1]; [13]) [µg/mL] | MIC (Providencia stuartii) [µg/mL] | MIC (Klebsiella aerogenes; [14]) [µg/mL] | MIC (Klebsiella pneumoniae) [µg/mL] | MIC (Escherichia coli [2]) [µg/mL] | MIC (Enterococcus faecium) [µg/mL] | MIC (Pseudomonas aeruginosa) [µg/mL] | MIC (Streptococcus pyogenes) [µg/mL] | MIC (Staphylococcus aureus [3]) [µg/mL] | ED50 (Escherichia coli [4]) [mg/kg/day] | ED50 (Staphylococcus aureus [5]) [mg/kg/day] | ED50 [6] [mg/kg/day] | ED50 (Staphylococcus aureus [7]) [mg/kg/day] | further results
Cc1c(N2CC[C@@H]([C@@H](N)C(F)(F)F)C2)c(F)cn2c(=O)c(C(=O)O)cc(C3CC3)c12 | 0.39 (≈ 0.912 µM) | 0.02 (≈ 0.0468 µM) | 6.2 (≈ 14.5 µM) | 1.56 (≈ 3.65 µM) | 0.39 (≈ 0.912 µM) | 0.78 (≈ 1.82 µM) | 0.39 (≈ 0.912 µM) | 6.2 (≈ 14.5 µM) | 0.2 (≈ 0.468 µM) | 0.78 (≈ 1.82 µM) |  |  |  |  | 
Cc1c(N2C[C@@H](N)[C@H](F)C2)c(F)cn2c(=O)c(C(=O)O)cc(C3CC3)c12 (stereo in doubt; 3a-R,R7) | 0.39 (≈ 1.07 µM) |  | 1.56 (≈ 4.29 µM) |  | 0.02 (≈ 0.055 µM) |  | 0.2 (≈ 0.55 µM) | 1.56 (≈ 4.29 µM) | 0.2 (≈ 0.55 µM) | 1.56 (≈ 4.29 µM) | > 5 | 7.3 | > 10 | 4.8 | MIC (Staphylococcus aureus [1]): 0.05 µg/mL (≈ 0.138 µM); MIC (Klebsiella aerogenes): 0.2 µg/mL (≈ 0.55 µM)
Cc1c(N2C[C@@H](N)[C@H](C(F)(F)F)C2)c(F)cn2c(=O)c(C(=O)O)cc(C3CC3)c12 | 0.39 (≈ 0.943 µM) | 0.02 (≈ 0.0484 µM) | 3.1 (≈ 7.5 µM) | 0.2 (≈ 0.484 µM) | 0.05 (≈ 0.121 µM) | 0.05 (≈ 0.121 µM) | 0.2 (≈ 0.484 µM) | 0.78 (≈ 1.89 µM) | 0.2 (≈ 0.484 µM) | 1.56 (≈ 3.77 µM) |  | 25.4 |  | 4.8 | CC50 (DNA gyrase (bacterial)): 3.8 µg/mL (≈ 9.19 µM)
O=C(O)c1cn(C2CC2)c2cc(N3CCNCC3)c(F)cc2c1=O [CIPROFLOXACIN] | 0.78 (≈ 2.35 µM) | 0.39 (≈ 1.18 µM) | 1.56 (≈ 4.71 µM) | 0.02 (≈ 0.0604 µM) | 0.02 (≈ 0.0604 µM) |  | 0.78 (≈ 2.35 µM) | 0.2 (≈ 0.604 µM) |  | > 100 | 0.1 |  | 1 |  | ED50 (Mus musculus [8]): 4.1 mg/kg/day; ED50 (Mus musculus [9]): 28.2 mg/kg/day
Cc1c(N2C[C@H](CF)[C@@H](N)C2)c(F)cn2c(=O)c(C(=O)O)cc(C3CC3)c12 | 0.39 (≈ 1.03 µM) | 0.01 (≈ 0.0265 µM) | 0.78 (≈ 2.07 µM) | 0.02 (≈ 0.053 µM) | 0.002 (≈ 0.0053 µM) | 0.1 (≈ 0.265 µM) | 0.2 (≈ 0.53 µM) | 0.39 (≈ 1.03 µM) | 0.2 (≈ 0.53 µM) | 3.1 (≈ 8.21 µM) | 0.4 | 11.5 | 3 | 1.2 | 
Cc1c(N2C[C@@H](CF)[C@H](N)C2)c(F)cn2c(=O)c(C(=O)O)cc(C3CC3)c12 | 0.1 (≈ 0.265 µM) |  | 0.78 (≈ 2.07 µM) | 0.05 (≈ 0.132 µM) | 0.01 (≈ 0.0265 µM) | 0.02 (≈ 0.053 µM) | 0.1 (≈ 0.265 µM) | 0.39 (≈ 1.03 µM) | 0.1 (≈ 0.265 µM) | 1.56 (≈ 4.13 µM) | 0.8 |  |  | 1.2 | MIC (Staphylococcus aureus [1]): 0.02 µg/mL (≈ 0.053 µM)

More lines, in order of falling MIC (Providencia stuartii), values ahead:

MIC (Streptococcus equinus) [µg/mL] | MIC (Staphylococcus aureus [1]; [13]) [µg/mL] | MIC (Providencia stuartii) [µg/mL] | MIC (Klebsiella aerogenes; [14]) [µg/mL] | MIC (Klebsiella pneumoniae) [µg/mL] | MIC (Escherichia coli [2]) [µg/mL] | MIC (Enterococcus faecium) [µg/mL] | MIC (Pseudomonas aeruginosa) [µg/mL] | MIC (Streptococcus pyogenes) [µg/mL] | MIC (Staphylococcus aureus [3]) [µg/mL] | SMILES | ED50 (Escherichia coli [4]) [mg/kg/day] | ED50 (Staphylococcus aureus [5]) [mg/kg/day] | ED50 [6] [mg/kg/day] | ED50 (Staphylococcus aureus [7]) [mg/kg/day] | further results
0.2 (≈ 0.55 µM) | 0.02 (≈ 0.055 µM) | 0.78 (≈ 2.15 µM) | 0.05 (≈ 0.138 µM) | 0.05 (≈ 0.138 µM) | 0.02 (≈ 0.055 µM) | 0.1 (≈ 0.275 µM) | 0.39 (≈ 1.07 µM) | 0.1 (≈ 0.275 µM) | 1.56 (≈ 4.29 µM) | Cc1c(N2C[C@@H](N)[C@@H](F)C2)c(F)cn2c(=O)c(C(=O)O)cc(C3CC3)c12 | 1.8 |  | 7.4 | 1.5 | Cmax [10]: 900 ng/mL; ED50 (Mus musculus [11]): 7.7 mg/kg/day; bioavailability [12]: 34%
0.39 (≈ 1.07 µM) | 0.05 (≈ 0.138 µM) | 0.78 (≈ 2.15 µM) | 0.2 (≈ 0.55 µM) | 0.02 (≈ 0.055 µM) |  | 0.39 (≈ 1.07 µM) | 0.78 (≈ 2.15 µM) | 0.39 (≈ 1.07 µM) | 1.56 (≈ 4.29 µM) | Cc1c(N2C[C@H](N)[C@@H](F)C2)c(F)cn2c(=O)c(C(=O)O)cc(C3CC3)c12 | > 5 | 25 | > 10 | 4.8 | 
 | 0.01 (≈ 0.0265 µM) | 0.39 (≈ 1.03 µM) | 0.02 (≈ 0.053 µM) | 0.005 (≈ 0.0132 µM) | 0.005 (≈ 0.0132 µM) | 0.1 (≈ 0.265 µM) | 0.2 (≈ 0.53 µM) | 0.02 (≈ 0.053 µM) | 1.56 (≈ 4.13 µM) | Cc1c(N2C[C@H](CF)[C@H](N)C2)c(F)cn2c(=O)c(C(=O)O)cc(C3CC3)c12 |  |  |  |  | 
